Data: patent US6916660B2, “Fluorescent sensor compounds for detecting saccharides” (North Carolina State University, priority 2002, dated 2005)
Where two headings read alike, the source gives them in different places.

What was measured:
[1] = Springsteen et al.; cited from earlier work
[2] = Springsteen et al.; cited from earlier work; remark: listed apart in the source
HEPG2 cells = experiment: Fluorescent labeling of fixed HEPG2 cells expressing sLex (microscopy, densitometry); assay type: cell-based; conditions: 1 μM compound
Method: (§1) Cell culture. HEPG2 and COS7 cells were maintained in RPMI media (G. E. Moore et al. (1967) J. Am. Med. Assoc. 199, 519-524) with 10% FBS (GIBCO). HEP3B cells were maintained in RPMI with 10% FBS and 1× sodium pyruvate and 1× non-essential amino acids (GIBCO).
(§2) Fluorescent labeling studies. 6-well plates were seeded with 1×10^6 cells per well and incubated at 37° C. and 5% CO2 for 48 h. The media was removed and cells were washed twice with 1×PBS. The cells were fixed with 1.5 mL of 1:1 methanol/PBS and incubated 20 minutes at 4° C. After incubation, the methanol/PBS solution was removed and cells were washed twice with PBS.
(§3) Diboronic acid compounds 7 were resuspended in 1:1 methanol/PBS and added to wells at 0.5 to 10 μM concentrations. One well was incubated only in methanol/PBS without compound as a negative control. The plates were then incubated in darkness at 4° C. for 45 min. Plates were examined with phase contrast microscopy followed by fluorescent microscopy (blue cube wavelengths 370 nm excitation, 426 nm emission; 20× lens). Plates were photographed using a Nikon DXM1200 digital camera and images captured with the Nikon ACT-1 program (v 2.10). The phase contrast and fluorescent images were then overlaid, organized and labeled using Adobe Photoshop 6.0. The images were quantified with NIH ImageJ 1.28. The units (mean gray value) were subtracted from background, where there are no cells. The fluorescent signal was stable for at least 96 h when cells were maintained in darkness.
(§4) HEPG2, a cell line that selectively expresses sLex on the surface, was selected for examination. To examine the selectivity of the sensor for cell surface sLex, HEP3B and COS7 cells were labeled in parallel. COS7 expresses none of the fucosylated antigens associated with carcinoma progression and HEP3B expresses only the Lewis Y antigen. See B. W. Weston et al. (1992) J. Biol. Chem. 267, 4152-4160; B. W. Weston et al. (1992) J. Biol. Chem. 267, 24575-24584.
(§5) HEPG2 and control cell lines were incubated with compound 7q, while three other diboronic acids (7b, 7d, 7y) were used as controls. […]

HEP3B cells = experiment: Fluorescent labeling of fixed HEP3B cells expressing Lewis Y (microscopy, densitometry); assay type: cell-based; conditions: 1 μM compound
Method: as §1, §2, §3, §4, §5

[3] = Fluorescence titration of sensor compounds with glucose; assay type: binding
Method: (§6) The affinity and selectivity of the fluorescent sensor compounds (7) for glucose were evaluated. Specifically, 2 mL of a solution of each sensor compound (7) in methanol (2×10^−6 M) was mixed with 2 mL of aqueous saccharide phosphate buffer solution (pH 7.4) at various concentrations, and the fluorescence intensity recorded. […] This represents a 43- and 49-fold selectivity over fructose and galactose, respectively. In addition, fluorescence enhancement was very large (about 7-fold).

[4] = Fluorescence titration of sensor compounds with galactose; assay type: binding; conditions: 50% MeOH/0.1 M phosphate buffer pH 7.4, sensor 1×10^−6 M, 25° C.
Method: as §6

[5] = Fluorescence titration of sensor compounds with fructose; assay type: binding; conditions: 50% MeOH/0.1 M phosphate buffer pH 7.4, sensor 1×10^−6 M, 25° C.
Method: as §6

[6] = Solution binding studies with Lewis Y (data not shown)
[7] = Binding of fluorescent compounds 7 to sLex in solution (fluorescence intensity change); conditions: solution binding studies
Method: Diboronic acid compounds 7 were designed to show significant fluorescence intensity changes upon binding with a complementary carbohydrate. In screening for their binding with the target carbohydrate, sLex, the fluorescence intensity changes of solutions of the compounds upon addition of the carbohydrate were determined. These experiments were conducted in a mixture of methanol and 0.1 M phosphate buffer (pH 7.4) (1:1, v/v). Methanol was used to improve the solubility of the sensor compounds. The concentration of fluorescent sensor compound (7) (specific structures provided in FIG. 1, above) was fixed at 1×10^−5 or 1×10^−6 M, and the concentration of sLex was set at 60 μM.

For OB(O)c1ccccc1 [PBA, phenylboronic acid], the Ka for glucose [1] is listed as 5 M⁻¹ and the Ka for fructose [2] is listed as 162 M⁻¹.
In the case of CN(Cc1ccccc1B(O)O)Cc1c2ccccc2c(CN(C)C(=O)CCCCC(=O)N(C)Cc2c3ccccc3c(CN(C)Cc3ccccc3B(O)O)c3ccccc23)c2ccccc12 [Compound 7y], the “labeling of HEPG2 cells (mean gray value)” value (from here on “labeling of HEPG2 cells”) (HEPG2 cells) is reported as “recognized surface sLex and Lewis Y with equal avidity” and the “labeling of HEP3B cells (mean gray value)” value (“labeling of HEP3B cells” below) (HEP3B cells) is reported as “recognized surface sLex and Lewis Y with equal avidity”.
In the case of CN(Cc1ccccc1B(O)O)Cc1c2ccccc2c(CN(C)C(=O)Cc2ccccc2CC(=O)N(C)Cc2c3ccccc3c(CN(C)Cc3ccccc3B(O)O)c3ccccc23)c2ccccc12 [Compound 7b], the “labeling of HEPG2 cells” value (HEPG2 cells) is reported as “did not recognize sLex on HEPG2 cells”, the Ka for glucose ([3]; 50% MeOH/0.1 M phosphate buffer pH 7.4, sensor 1×10^−6 M, 25° C.) is reported as 1472 M⁻¹ and the “glucose concentration region of most sensitive fluorescence intensity changes” value ([3]; FIG. 8) is reported as “mM region”. For the same molecule, the “selectivity for glucose over fructose” value ([3]; ratio of Ka) was 43 fold, the “selectivity for glucose over galactose” value ([3]; ratio of Ka) was 49 fold and the “improvement in affinity for glucose compared with PBA” value ([3]; versus phenylboronic acid) was “about 300 fold”. For the same molecule, the “improvement in selectivity for glucose over fructose compared with PBA” value ([3]; versus phenylboronic acid) was “about 1400 fold”, the “labeling of HEP3B cells” value (HEP3B cells) was “avidly bound Lewis Y-expressing HEP3B cells” and the Ka for galactose [4] was 30 M⁻¹. It also gave a Ka for fructose [5] of 34 M⁻¹.
For CN(Cc1ccccc1B(O)O)Cc1c2ccccc2c(CN(C)C(=O)CCc2ccc(CCC(=O)N(C)Cc3c4ccccc4c(CN(C)Cc4ccccc4B(O)O)c4ccccc34)cc2)c2ccccc12 [Compound 7d], the “affinity for Lewis Y in solution” value [6] was “low affinity”, the “labeling of HEPG2 cells” value (HEPG2 cells) was “did not label HEPG2 or HEP3B” and the “labeling of HEP3B cells” value (HEP3B cells) was “did not label HEPG2 or HEP3B”. For the same molecule, the “affinity for sLex in solution” value [7] was “low affinity”.
